Laboratory results as given in PubChem BioAssay AID256 (DTP/NCI, 2004).
Where “and” joins values, the source holds several entries; their conditions need not be identical. Identical values can stand only once. Inconclusive results and toxic doses are left out. Rule for the calls: active = survival T/C of 150% or more; inactive = T/C below 125% in these data.

Test system: CD2F1 mice, L1210 leukemia ip, survival T/C
Experiment: NCI In Vivo Anticancer Drug Screen. Data for tumor model L1210 Leukemia (intraperitoneal) in CD2F1 (CDF1) mice
Details: higher = longer survival
Method in brief: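 Read-out first: treated-group measurement over vehicle-control measurement, expressed as a ratio. Animals bore a transplanted tumor line and were dosed with compound or vehicle.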

[1] = endpoint: mean survival time, dose: 25.0 mg/kg/injection, schedule: Q01DX009 (ip), vehicle: saline with Tween-80
[2] = endpoint: mean survival time, dose: 50.0 mg/kg/injection, schedule: Q01DX009 (ip), vehicle: saline with Tween-80
[3] = endpoint: mean survival time, dose: 100.0 mg/kg/injection, schedule: Q04DX003 (ip), vehicle: saline with Tween-80
[4] = endpoint: mean survival time, dose: 200.0 mg/kg/injection, schedule: Q04DX003 (ip), vehicle: saline with Tween-80
[5] = endpoint: mean survival time, dose: 400.0 mg/kg/injection, schedule: Q04DX003 (ip), vehicle: saline with Tween-80
[6] = endpoint: mean survival time, dose: 100.0 mg/kg/injection, schedule: Q01DX001 (ip), vehicle: saline with Tween-80
[7] = endpoint: mean survival time, dose: 200.0 mg/kg/injection, schedule: Q01DX001 (ip), vehicle: saline with Tween-80
[8] = endpoint: mean survival time, dose: 400.0 mg/kg/injection, schedule: Q01DX001 (ip), vehicle: saline with Tween-80
[9] = endpoint: mean survival time, dose: 100.0 mg/kg/injection, schedule: Q01DX009 (ip), vehicle: saline with Tween-80
[10] = endpoint: mean survival time, dose: 200.0 mg/kg/injection, schedule: Q01DX009 (ip), vehicle: saline with Tween-80
[11] = endpoint: mean survival time, dose: 400.0 mg/kg/injection, schedule: Q01DX009 (ip), vehicle: saline with Tween-80

Measured: T/C

OC1CCCC2CCCNC12 (stereo not drawn)
inactive: endpoint: mean survival time, dose: 1.25 mg/kg/injection, schedule: Q01DX009 (ip), vehicle: Klucel (hydroxypropylcellulose) (HPC) 109 % of control | endpoint: mean survival time, dose: 3.12 mg/kg/injection, schedule: Q01DX009 (ip), vehicle: saline with Tween-80 98 % of control | endpoint: mean survival time, dose: 6.25 mg/kg/injection, schedule: Q01DX009 (ip), vehicle: saline with Tween-80 88 % of control | endpoint: mean survival time, dose: 12.5 mg/kg/injection, schedule: Q01DX009 (ip), vehicle: saline with Tween-80 103 % of control | endpoint: mean survival time, dose: 25.0 mg/kg/injection, schedule: Q01DX009 (ip), vehicle: Klucel (hydroxypropylcellulose) (HPC) 107 % of control | [1] 104 % of control | endpoint: mean survival time, dose: 50.0 mg/kg/injection, schedule: Q01DX009 (ip), vehicle: Klucel (hydroxypropylcellulose) (HPC) 98 % of control | [2] 110 % of control

Oc1ccc2ccccc2c1Cl
inactive: [3] 104 % of control | [4] 112 % of control | [5] 108 % of control

N=c1c2ncn(C3CCCC3)c2ncn1Cc1ccc([N+](=O)[O-])cc1
inactive: endpoint: mean survival time, dose: 75.0 mg/kg/injection, schedule: Q01DX001 (ip), vehicle: other 106 % of control

O=C(/C(Br)=C/c1ccccc1[N+](=O)[O-])c1ccccc1
inactive: [6] 98 % of control | [7] 95 % of control | [8] 98 % of control

ClC1CCC(Cl)C2CCC3C(Cl)CCC1[S+]23 (stereo not drawn)
inactive: endpoint: mean survival time, dose: 3.12 mg/kg/injection, schedule: Q01DX009 (ip), vehicle: Klucel (hydroxypropylcellulose) (HPC) 104 % of control | endpoint: mean survival time, dose: 6.25 mg/kg/injection, schedule: Q01DX009 (ip), vehicle: Klucel (hydroxypropylcellulose) (HPC) 97 % of control | endpoint: mean survival time, dose: 12.5 mg/kg/injection, schedule: Q01DX009 (ip), vehicle: Klucel (hydroxypropylcellulose) (HPC) 95 % of control

CSc1nc(NC2OC(CO)C(O)C(O)C2O)c(I)c(=O)[nH]1 (stereo not drawn)
inactive: endpoint: median survival time, dose: 12.5 mg/kg/injection, schedule: Q01DX005 (ip), vehicle: saline with Tween-80 100 % of control | endpoint: median survival time, dose: 25.0 mg/kg/injection, schedule: Q01DX005 (ip), vehicle: saline with Tween-80 98 % of control | endpoint: median survival time, dose: 50.0 mg/kg/injection, schedule: Q01DX005 (ip), vehicle: saline with Tween-80 100 % of control | endpoint: median survival time, dose: 100.0 mg/kg/injection, schedule: Q01DX005 (ip), vehicle: saline with Tween-80 100 % of control | endpoint: median survival time, dose: 200.0 mg/kg/injection, schedule: Q01DX005 (ip), vehicle: saline with Tween-80 102 % of control

NC(=O)NN=C1CCC1
inactive: endpoint: mean survival time, dose: 75.0 mg/kg/injection, schedule: Q01DX001 (ip), vehicle: saline 98 % of control

CCOc1ccc(/C=C/C(=O)c2ccc(C)cc2)cc1OCC
inactive: endpoint: mean survival time, dose: 37.5 mg/kg/injection, schedule: Q01DX009 (ip), vehicle: saline 98 % of control | endpoint: mean survival time, dose: 75.0 mg/kg/injection, schedule: Q01DX009 (ip), vehicle: saline 98 % of control | endpoint: mean survival time, dose: 150.0 mg/kg/injection, schedule: Q01DX009 (ip), vehicle: saline 113 % of control

COc1ccc(C=Nc2ccccc2)cc1
inactive: [9] 95 % of control | [10] 89 % of control | [11] 89 % of control

C#CC(O)C(CC)CCCC (stereo not drawn)
inactive: [2] 99 % of control | [9] 94 % of control

CC(N)C(=O)NC(CO)C(=O)O (stereo not drawn)
inactive: endpoint: mean survival time, dose: 100.0 mg/kg/injection, schedule: Q01DX009 (ip), vehicle: saline 103 % of control | endpoint: mean survival time, dose: 100.0 mg/kg/injection, schedule: Q04DX003 (ip), vehicle: saline 97 % of control | endpoint: mean survival time, dose: 200.0 mg/kg/injection, schedule: Q01DX009 (ip), vehicle: saline 95 % of control | endpoint: mean survival time, dose: 200.0 mg/kg/injection, schedule: Q04DX003 (ip), vehicle: saline 93 % of control | endpoint: mean survival time, dose: 400.0 mg/kg/injection, schedule: Q01DX009 (ip), vehicle: saline 97 % of control | endpoint: mean survival time, dose: 400.0 mg/kg/injection, schedule: Q04DX003 (ip), vehicle: saline 93 % of control

Cc1ccc(-n2nc(C3OCC(O)C3O)c3nc4cc(C)c(C)cc4nc32)cc1 (stereo not drawn)
inactive: endpoint: median survival time, dose: 10.0 mg/kg/injection, schedule: Q01DX005 (ip), vehicle: distilled water + Tween-80 98 % of control | endpoint: median survival time, dose: 20.0 mg/kg/injection, schedule: Q01DX005 (ip), vehicle: distilled water + Tween-80 97 % of control | endpoint: median survival time, dose: 40.0 mg/kg/injection, schedule: Q01DX005 (ip), vehicle: distilled water + Tween-80 103 % of control | endpoint: median survival time, dose: 80.0 mg/kg/injection, schedule: Q01DX005 (ip), vehicle: distilled water + Tween-80 97 % of control | endpoint: median survival time, dose: 160.0 mg/kg/injection, schedule: Q01DX005 (ip), vehicle: distilled water + Tween-80 98 % of control

CN1CCC(=C(C#N)c2ccccc2)CC1
inactive: endpoint: mean survival time, dose: 12.5 mg/kg/injection, schedule: Q01DX009 (ip), vehicle: saline 100 % of control | endpoint: mean survival time, dose: 25.0 mg/kg/injection, schedule: Q01DX009 (ip), vehicle: saline 102 % of control

N=C(N)c1ccc(OCCOc2ccc(N)cc2)cc1
inactive: [6] 103 % of control | [7] 103 % of control

CNC(C)c1ccc(C)cc1 (stereo not drawn)
inactive: endpoint: mean survival time, dose: 6.25 mg/kg/injection, schedule: Q04DX003 (ip), vehicle: saline with Tween-80 98 % of control | endpoint: mean survival time, dose: 12.5 mg/kg/injection, schedule: Q04DX003 (ip), vehicle: saline with Tween-80 108 % of control | endpoint: mean survival time, dose: 25.0 mg/kg/injection, schedule: Q04DX003 (ip), vehicle: saline with Tween-80 101 % of control

CCCCCCC[CH2][Sn]([CH2]C)([CH2]C)[O]C(C)=O
inactive: endpoint: mean survival time, dose: 0.25 mg/kg/injection, schedule: Q04DX003 (ip), vehicle: saline 106 % of control | endpoint: mean survival time, dose: 0.5 mg/kg/injection, schedule: Q04DX003 (ip), vehicle: saline 101 % of control | endpoint: mean survival time, dose: 0.63 mg/kg/injection, schedule: Q04DX003 (ip), vehicle: saline 93 % of control | endpoint: mean survival time, dose: 1.0 mg/kg/injection, schedule: Q04DX003 (ip), vehicle: saline 103 % of control | endpoint: mean survival time, dose: 1.25 mg/kg/injection, schedule: Q04DX003 (ip), vehicle: saline 102 % of control

N#CC(CC(=O)c1ccccc1)c1ccccc1 (stereo not drawn)
inactive: [3] 90 % of control | [4] 102 % of control | [5] 104 % of control

CCCCCCCCCC(=O)NC(=S)Nc1ccc(Cl)cc1
inactive: [1] 95 % of control and 96 % of control | [2] 98 % of control and 101 % of control | [6] 94 % of control and 95 % of control | endpoint: mean survival time, dose: 100.0 mg/kg/injection, schedule: Q04DX002 (ip), vehicle: saline with Tween-80 100 % of control and 104 % of control | [7] 92 % of control and 103 % of control | endpoint: mean survival time, dose: 200.0 mg/kg/injection, schedule: Q04DX002 (ip), vehicle: saline with Tween-80 92 % of control and 93 % of control | [8] 100 % of control and 103 % of control | endpoint: mean survival time, dose: 400.0 mg/kg/injection, schedule: Q04DX002 (ip), vehicle: saline with Tween-80 88 % of control and 90 % of control

CCOC(=O)Nc1cc(NCCc2ccccc2)c2[nH]cnc2n1
inactive: endpoint: mean survival time, dose: 100.0 mg/kg/injection, schedule: Q01DX001 (ip), vehicle: Klucel (hydroxypropylcellulose) (HPC) 90 % of control | endpoint: mean survival time, dose: 200.0 mg/kg/injection, schedule: Q01DX001 (ip), vehicle: Klucel (hydroxypropylcellulose) (HPC) 87 % of control | endpoint: mean survival time, dose: 400.0 mg/kg/injection, schedule: Q01DX001 (ip), vehicle: Klucel (hydroxypropylcellulose) (HPC) 95 % of control

O=S1(=O)c2ccccc2Oc2ccccc21
inactive: [9] 97 % of control | [10] 107 % of control | [11] 95 % of control

O=C(COc1cccc(Cl)c1)NCc1ccc(Cl)cc1
inactive: [3] 99 % of control | [4] 101 % of control | [5] 91 % of control

O=S(CCCCO)c1ccccc1 (stereo not drawn)
inactive: endpoint: mean survival time, dose: 50.0 mg/kg/injection, schedule: Q04DX002 (ip), vehicle: saline 101 % of control | endpoint: mean survival time, dose: 100.0 mg/kg/injection, schedule: Q04DX002 (ip), vehicle: saline 104 % of control | endpoint: mean survival time, dose: 200.0 mg/kg/injection, schedule: Q04DX002 (ip), vehicle: saline 96 % of control
